“And” between values parts separate entries of the source, which are not always exact repeats. Equal entries are not always repeated.
What was measured:
Experiment in all cases: radiometric filter-binding kinase assay, Kinase HotSpot
Conditions in all cases: compound 0.5 µM; ATP 10 µM
RET (human) = RET (human) (UniProt P07949)
ADRBK1 (human) = ADRBK1 (human) (UniProt P25098)
PRKG1 (human) = PRKG1 (human) (UniProt Q13976)
CDK9 CCNT1 (human) = CDK9 CCNT1 (human) (UniProt P50750+O60563)
PHKG2 (human) = PHKG2 (human) (UniProt P15735)
LTK (human) = LTK (human) (UniProt P29376)
Sequence of LTK (human) (P29376 whole entry, looked up): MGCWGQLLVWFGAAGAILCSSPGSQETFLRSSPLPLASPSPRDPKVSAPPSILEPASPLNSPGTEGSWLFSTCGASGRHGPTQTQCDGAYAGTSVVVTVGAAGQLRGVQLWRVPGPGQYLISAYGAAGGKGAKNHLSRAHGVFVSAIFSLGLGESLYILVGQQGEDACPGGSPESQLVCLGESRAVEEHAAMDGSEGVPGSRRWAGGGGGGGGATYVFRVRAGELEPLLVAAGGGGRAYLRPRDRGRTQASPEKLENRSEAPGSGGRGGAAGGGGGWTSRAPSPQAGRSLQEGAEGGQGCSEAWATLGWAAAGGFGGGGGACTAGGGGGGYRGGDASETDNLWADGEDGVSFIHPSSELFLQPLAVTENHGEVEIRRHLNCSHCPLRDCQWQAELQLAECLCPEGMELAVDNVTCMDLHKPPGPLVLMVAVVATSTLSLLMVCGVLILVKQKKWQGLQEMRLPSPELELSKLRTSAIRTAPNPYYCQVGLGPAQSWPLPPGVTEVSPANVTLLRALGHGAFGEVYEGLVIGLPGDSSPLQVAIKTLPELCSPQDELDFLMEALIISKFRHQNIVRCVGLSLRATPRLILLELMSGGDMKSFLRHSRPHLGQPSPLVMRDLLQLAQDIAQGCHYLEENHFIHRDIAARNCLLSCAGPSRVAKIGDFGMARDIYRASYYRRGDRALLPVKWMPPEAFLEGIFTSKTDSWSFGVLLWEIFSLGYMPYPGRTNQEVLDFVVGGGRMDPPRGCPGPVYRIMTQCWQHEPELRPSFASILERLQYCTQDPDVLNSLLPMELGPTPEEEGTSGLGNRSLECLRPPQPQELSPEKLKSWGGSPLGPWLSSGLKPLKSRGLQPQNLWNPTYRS

NUAK1 (human) = NUAK1 (human) (UniProt O60285)
RPS6KA5 KD2 (human) = RPS6KA5 KD2 (human) (UniProt O75582)
NEK11 (human) = NEK11 (human) (UniProt Q8NG66)
FGFR2 (human) = FGFR2 (human) (UniProt P21802)
MLTK (human) = MLTK (human) (UniProt Q9NYL2)
RPS6KB2 (human) = RPS6KB2 (human) (UniProt Q9UBS0)
NEK3 (human) = NEK3 (human) (UniProt P51956)
NTRK2 (human) = NTRK2 (human) (UniProt Q16620)
TTK (human) = TTK (human) (UniProt P33981)
Sequence of TTK (human) (P33981 whole entry, looked up): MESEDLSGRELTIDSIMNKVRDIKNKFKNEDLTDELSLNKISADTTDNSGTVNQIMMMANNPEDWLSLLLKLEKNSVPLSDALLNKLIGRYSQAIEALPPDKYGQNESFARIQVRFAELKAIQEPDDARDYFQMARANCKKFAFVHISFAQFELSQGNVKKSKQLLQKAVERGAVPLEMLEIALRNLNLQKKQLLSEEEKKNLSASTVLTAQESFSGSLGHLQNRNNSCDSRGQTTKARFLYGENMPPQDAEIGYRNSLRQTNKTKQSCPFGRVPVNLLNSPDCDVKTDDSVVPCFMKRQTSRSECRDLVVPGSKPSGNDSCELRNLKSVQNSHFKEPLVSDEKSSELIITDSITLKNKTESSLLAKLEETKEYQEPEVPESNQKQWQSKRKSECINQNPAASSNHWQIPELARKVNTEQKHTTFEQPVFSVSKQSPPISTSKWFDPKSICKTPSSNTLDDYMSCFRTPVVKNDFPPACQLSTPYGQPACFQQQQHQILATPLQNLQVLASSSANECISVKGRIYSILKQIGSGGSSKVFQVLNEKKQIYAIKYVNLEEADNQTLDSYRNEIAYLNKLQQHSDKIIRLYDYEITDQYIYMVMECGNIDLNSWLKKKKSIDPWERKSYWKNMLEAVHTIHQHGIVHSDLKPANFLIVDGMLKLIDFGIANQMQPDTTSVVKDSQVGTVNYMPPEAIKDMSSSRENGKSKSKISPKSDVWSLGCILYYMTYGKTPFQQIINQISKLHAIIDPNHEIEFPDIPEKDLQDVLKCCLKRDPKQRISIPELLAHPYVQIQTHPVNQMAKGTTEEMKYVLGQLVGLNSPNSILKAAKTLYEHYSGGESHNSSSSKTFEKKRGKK

FYN (human) = FYN (human) (UniProt P06241)
PTK2 (human) = PTK2 (human) (UniProt Q05397)
[1] = molecular target: JAK1 JH1 catalytic (human) (UniProt P23458)
CSNK1A1 (human) = CSNK1A1 (human) (UniProt P48729)
MAP3K11 (human) = MAP3K11 (human) (UniProt Q16584)
SRMS (human) = SRMS (human) (UniProt Q9H3Y6)
Sequence of SRMS (human) (Q9H3Y6 whole entry, looked up): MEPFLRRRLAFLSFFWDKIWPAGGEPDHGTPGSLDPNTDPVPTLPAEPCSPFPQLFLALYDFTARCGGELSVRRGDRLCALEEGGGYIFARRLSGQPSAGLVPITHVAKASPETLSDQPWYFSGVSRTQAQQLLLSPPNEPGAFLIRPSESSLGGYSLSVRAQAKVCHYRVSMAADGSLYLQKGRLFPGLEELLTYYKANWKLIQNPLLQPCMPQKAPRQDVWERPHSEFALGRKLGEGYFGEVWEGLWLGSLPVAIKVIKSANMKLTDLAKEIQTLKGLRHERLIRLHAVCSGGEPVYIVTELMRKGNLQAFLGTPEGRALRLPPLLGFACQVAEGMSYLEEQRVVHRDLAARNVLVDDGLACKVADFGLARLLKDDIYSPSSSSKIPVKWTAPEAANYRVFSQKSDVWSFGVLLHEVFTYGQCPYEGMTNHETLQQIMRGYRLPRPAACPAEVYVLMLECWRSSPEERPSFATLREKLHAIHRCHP

CLK4 (human) = CLK4 (human) (UniProt Q9HAZ1)
PRKCH (human) = PRKCH (human) (UniProt P24723)
EPHB1 (human) = EPHB1 (human) (UniProt P54762)
PTK6 (human) = PTK6 (human) (UniProt Q13882)
Sequence of PTK6 (human) (Q13882 whole entry, looked up): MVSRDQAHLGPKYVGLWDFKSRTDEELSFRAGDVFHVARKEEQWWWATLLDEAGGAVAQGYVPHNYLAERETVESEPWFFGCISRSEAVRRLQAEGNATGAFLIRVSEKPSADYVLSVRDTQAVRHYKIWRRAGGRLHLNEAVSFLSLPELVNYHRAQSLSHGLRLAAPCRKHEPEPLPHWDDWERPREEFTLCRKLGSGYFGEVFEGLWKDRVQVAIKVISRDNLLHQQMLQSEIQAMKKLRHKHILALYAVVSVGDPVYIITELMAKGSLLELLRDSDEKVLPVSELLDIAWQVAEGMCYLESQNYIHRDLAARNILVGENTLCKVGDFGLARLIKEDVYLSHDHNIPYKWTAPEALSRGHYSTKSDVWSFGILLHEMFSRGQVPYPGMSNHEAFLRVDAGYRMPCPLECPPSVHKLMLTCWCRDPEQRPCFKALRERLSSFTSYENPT

ULK1 (human) = ULK1 (human) (UniProt O75385)
LYN (human) = LYN (human) (UniProt P07948)
KIT (human) = KIT (human) (UniProt P10721)
PNCK (human) = PNCK (human) (UniProt Q6P2M8)
KDR (human) = KDR (human) (UniProt P35968)
CDK6 CCND1 (human) = CDK6 CCND1 (human) (UniProt Q00534+P24385)
CAMK1 (human) = CAMK1 (human) (UniProt Q14012)
SRPK2 (human) = SRPK2 (human) (UniProt P78362)
SRPK1 (human) = SRPK1 (human) (UniProt Q96SB4)
Sequence of SRPK1 (human) (Q96SB4 whole entry, looked up): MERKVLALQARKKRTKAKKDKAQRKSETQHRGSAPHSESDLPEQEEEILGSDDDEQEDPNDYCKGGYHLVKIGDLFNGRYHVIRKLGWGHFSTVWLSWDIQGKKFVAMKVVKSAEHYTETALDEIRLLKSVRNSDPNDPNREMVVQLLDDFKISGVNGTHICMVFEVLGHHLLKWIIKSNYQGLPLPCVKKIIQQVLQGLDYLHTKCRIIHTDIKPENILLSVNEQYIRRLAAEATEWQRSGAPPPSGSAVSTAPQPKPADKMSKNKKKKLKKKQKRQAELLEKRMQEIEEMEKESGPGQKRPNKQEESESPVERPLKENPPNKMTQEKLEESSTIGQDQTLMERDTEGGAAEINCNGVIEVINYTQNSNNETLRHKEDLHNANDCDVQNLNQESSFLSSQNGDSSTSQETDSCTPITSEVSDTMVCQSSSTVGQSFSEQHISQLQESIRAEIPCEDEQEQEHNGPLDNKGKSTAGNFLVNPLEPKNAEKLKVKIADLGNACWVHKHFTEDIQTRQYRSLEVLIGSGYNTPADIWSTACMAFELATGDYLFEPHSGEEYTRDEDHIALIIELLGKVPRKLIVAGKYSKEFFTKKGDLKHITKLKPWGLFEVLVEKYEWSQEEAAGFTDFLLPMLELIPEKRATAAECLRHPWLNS

MELK (human) = MELK (human) (UniProt Q14680)
NTRK3 (human) = NTRK3 (human) (UniProt Q16288)
STK24 (human) = STK24 (human) (UniProt Q9Y6E0)
NEK1 (human) = NEK1 (human) (UniProt Q96PY6)
RPS6KA1 KD1 KD2 (human) = RPS6KA1 KD1 KD2 (human) (UniProt Q15418)
MAPK9 (human) = MAPK9 (human) (UniProt P45984)
Sequence of MAPK9 (human) (P45984 whole entry, looked up): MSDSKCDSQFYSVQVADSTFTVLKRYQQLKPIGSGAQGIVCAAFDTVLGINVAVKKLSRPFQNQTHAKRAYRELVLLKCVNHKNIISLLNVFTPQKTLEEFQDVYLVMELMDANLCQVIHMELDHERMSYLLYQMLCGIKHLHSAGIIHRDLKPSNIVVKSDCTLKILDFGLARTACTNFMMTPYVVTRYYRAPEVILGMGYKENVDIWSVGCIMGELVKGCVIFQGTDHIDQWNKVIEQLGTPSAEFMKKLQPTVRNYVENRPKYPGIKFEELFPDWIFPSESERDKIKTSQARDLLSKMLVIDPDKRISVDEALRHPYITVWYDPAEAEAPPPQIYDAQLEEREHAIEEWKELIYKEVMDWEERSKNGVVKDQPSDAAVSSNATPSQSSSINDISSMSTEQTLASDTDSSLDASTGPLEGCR

MAPK3 (human) = MAPK3 (human) (UniProt P27361)
PAK6 (human) = PAK6 (human) (UniProt Q9NQU5)

Sequence of RET (human) (P07949 whole entry, looked up): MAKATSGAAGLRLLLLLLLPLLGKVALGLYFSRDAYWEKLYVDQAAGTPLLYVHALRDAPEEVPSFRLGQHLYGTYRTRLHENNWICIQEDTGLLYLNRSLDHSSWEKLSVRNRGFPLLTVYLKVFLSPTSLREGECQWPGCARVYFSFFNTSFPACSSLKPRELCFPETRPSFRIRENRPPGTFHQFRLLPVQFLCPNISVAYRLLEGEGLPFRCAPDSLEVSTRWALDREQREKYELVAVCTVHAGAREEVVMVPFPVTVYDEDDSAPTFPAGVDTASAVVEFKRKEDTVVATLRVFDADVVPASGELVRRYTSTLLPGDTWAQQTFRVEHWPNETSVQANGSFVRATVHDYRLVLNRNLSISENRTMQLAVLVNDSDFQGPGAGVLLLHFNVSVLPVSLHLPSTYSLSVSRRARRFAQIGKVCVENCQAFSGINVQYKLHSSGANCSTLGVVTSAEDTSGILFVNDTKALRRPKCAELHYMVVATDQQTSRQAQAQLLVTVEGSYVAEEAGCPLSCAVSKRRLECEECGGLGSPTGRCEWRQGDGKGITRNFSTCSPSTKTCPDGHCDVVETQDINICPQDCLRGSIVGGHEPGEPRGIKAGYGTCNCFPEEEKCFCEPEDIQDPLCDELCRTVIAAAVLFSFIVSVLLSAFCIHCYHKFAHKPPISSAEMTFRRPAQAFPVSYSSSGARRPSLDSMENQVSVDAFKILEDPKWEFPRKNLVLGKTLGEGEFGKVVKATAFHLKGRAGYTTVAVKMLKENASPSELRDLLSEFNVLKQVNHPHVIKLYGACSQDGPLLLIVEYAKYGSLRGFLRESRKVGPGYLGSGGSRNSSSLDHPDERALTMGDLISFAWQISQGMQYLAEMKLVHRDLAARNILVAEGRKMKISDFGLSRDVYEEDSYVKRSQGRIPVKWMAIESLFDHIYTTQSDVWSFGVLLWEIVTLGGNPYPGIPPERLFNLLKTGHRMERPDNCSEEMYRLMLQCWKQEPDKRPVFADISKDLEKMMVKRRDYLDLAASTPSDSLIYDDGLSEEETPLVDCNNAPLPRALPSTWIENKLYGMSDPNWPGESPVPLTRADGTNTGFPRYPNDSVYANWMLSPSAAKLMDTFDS

CC(C)n1cnc2c(Nc3cccc(Cl)c3)nc(NCCO)nc21 was tested, and the residual activity (RET (human)) was 82.9%, the residual activity (ADRBK1 (human)) was 96% and the residual activity (PRKG1 (human)) was 92.2% and 98.1%. It also gave a residual activity (CDK9 CCNT1 (human)) of 87.4%, a residual activity (PHKG2 (human)) of 93.2% and a residual activity (LTK (human)) of 85.3%. For the same molecule, the residual activity (NUAK1 (human)) was 67.3%, the residual activity (RPS6KA5 KD2 (human)) was 87% and the residual activity (NEK11 (human)) was 109%. For the same molecule, the residual activity (FGFR2 (human)) was 94.5%, the residual activity (MLTK (human)) was 96.6% and the residual activity (RPS6KB2 (human)) was 97%. The residual activity (NEK3 (human)) was 92.6%, the residual activity (NTRK2 (human)) was 66.1% and the residual activity (TTK (human)) was 82.5%. For the same molecule, the residual activity (FYN (human)) was 60.4%, the residual activity (PTK2 (human)) was 68.9% and the residual activity [1] was 103%. The residual activity (CSNK1A1 (human)) was 62.3%, the residual activity (MAP3K11 (human)) was 51% and the residual activity (SRMS (human)) was 85.1%. It also gave a residual activity (CLK4 (human)) of 36.1%, a residual activity (PRKCH (human)) of 99.4% and a residual activity (EPHB1 (human)) of 76.9%. The residual activity (PTK6 (human)) was 90.2%, the residual activity (ULK1 (human)) was 77.6% and the residual activity (LYN (human)) was 80.2% and 94.6%. It also gave a residual activity (KIT (human)) of 76.3%, a residual activity (PNCK (human)) of 100% and a residual activity (KDR (human)) of 103%. It also gave a residual activity (CDK6 CCND1 (human)) of 95.5%, a residual activity (CAMK1 (human)) of 71.2% and a residual activity (SRPK2 (human)) of 37.1%. It also gave a residual activity (SRPK1 (human)) of 61.7%, a residual activity (MELK (human)) of 59.7% and a residual activity (NTRK3 (human)) of 30.7%. It also gave a residual activity (STK24 (human)) of 87.7%, a residual activity (NEK1 (human)) of 90.4% and a residual activity (RPS6KA1 KD1 KD2 (human)) of 69.1%. It also gave a residual activity (MAPK9 (human)) of 101% and a residual activity (MAPK3 (human)) of 111%.
For COc1ccc(-c2cnc3c(-c4ccsc4)cnn3c2)cc1, the residual activity (RET (human)) was 92%, the residual activity (ADRBK1 (human)) was 100% and the residual activity (PRKG1 (human)) was 86.5% and 89.1%. For the same molecule, the residual activity (CDK9 CCNT1 (human)) was 73.8%, the residual activity (PHKG2 (human)) was 92.3% and the residual activity (LTK (human)) was 98.9%. The residual activity (NUAK1 (human)) was 77.9%, the residual activity (RPS6KA5 KD2 (human)) was 90.3% and the residual activity (NEK11 (human)) was 93.3%. It also gave a residual activity (FGFR2 (human)) of 92.4%, a residual activity (MLTK (human)) of 84.1% and a residual activity (RPS6KB2 (human)) of 100%. For the same molecule, the residual activity (NEK3 (human)) was 87.7%, the residual activity (NTRK2 (human)) was 82.9% and the residual activity (TTK (human)) was 94.2%. It also gave a residual activity (FYN (human)) of 86.3%, a residual activity (PTK2 (human)) of 93% and a residual activity [1] of 87%. For the same molecule, the residual activity (CSNK1A1 (human)) was 101%, the residual activity (MAP3K11 (human)) was 51.9% and the residual activity (SRMS (human)) was 97.4%. It also gave a residual activity (CLK4 (human)) of 62%, a residual activity (PRKCH (human)) of 111% and a residual activity (EPHB1 (human)) of 83.1%. For the same molecule, the residual activity (PTK6 (human)) was 77.5%, the residual activity (ULK1 (human)) was 79% and the residual activity (LYN (human)) was 81.8% and 92.7%. It also gave a residual activity (KIT (human)) of 36.2%, a residual activity (PNCK (human)) of 90.9% and a residual activity (KDR (human)) of 79.8%. The residual activity (CDK6 CCND1 (human)) was 53.4%, the residual activity (CAMK1 (human)) was 104% and the residual activity (SRPK2 (human)) was 94.1%. For the same molecule, the residual activity (SRPK1 (human)) was 101%, the residual activity (MELK (human)) was 73.6% and the residual activity (NTRK3 (human)) was 49.8%. The residual activity (STK24 (human)) was 95.5%, the residual activity (NEK1 (human)) was 89.4% and the residual activity (RPS6KA1 KD1 KD2 (human)) was 85.7%. For the same molecule, the residual activity (MAPK9 (human)) was 104% and the residual activity (MAPK3 (human)) was 99.5%.
For Nc1nc(Nc2ccc(S(N)(=O)=O)cc2)nn1C(=S)Nc1c(F)cccc1F, the residual activity (RET (human)) was 3.09%, the residual activity (ADRBK1 (human)) was 97.8% and the residual activity (PRKG1 (human)) was 85.1% and 91.3%. It also gave a residual activity (CDK9 CCNT1 (human)) of 15.6%, a residual activity (PHKG2 (human)) of 95.5% and a residual activity (LTK (human)) of 27.6%. For the same molecule, the residual activity (NUAK1 (human)) was 2.13%, the residual activity (RPS6KA5 KD2 (human)) was 68.1% and the residual activity (PAK6 (human)) was 81.9%. The residual activity (NEK11 (human)) was 101%, the residual activity (FGFR2 (human)) was 7.43% and the residual activity (MLTK (human)) was 49.1%. For the same molecule, the residual activity (RPS6KB2 (human)) was 96.2%, the residual activity (NEK3 (human)) was 19.6% and the residual activity (NTRK2 (human)) was 11.8%. It also gave a residual activity (TTK (human)) of 60.6%, a residual activity (FYN (human)) of 24.8% and a residual activity (PTK2 (human)) of 25.3%. For the same molecule, the residual activity [1] was 4.86%, the residual activity (MAP3K11 (human)) was 1.33% and the residual activity (SRMS (human)) was 94%. The residual activity (CLK4 (human)) was 1.92%, the residual activity (PRKCH (human)) was 45.7% and the residual activity (EPHB1 (human)) was 19.4%. It also gave a residual activity (PTK6 (human)) of 34.8%, a residual activity (ULK1 (human)) of 5.03% and a residual activity (KIT (human)) of 78.4%. It also gave a residual activity (PNCK (human)) of 89.1%, a residual activity (KDR (human)) of 6.55% and a residual activity (CDK6 CCND1 (human)) of 2.89%. The residual activity (SRPK2 (human)) was 17.1%, the residual activity (SRPK1 (human)) was 25.9% and the residual activity (MELK (human)) was 32.7%. It also gave a residual activity (NTRK3 (human)) of 3.59%, a residual activity (STK24 (human)) of 2.88% and a residual activity (NEK1 (human)) of 6.11%. The residual activity (RPS6KA1 KD1 KD2 (human)) was 5.34%, the residual activity (MAPK9 (human)) was 80.9% and the residual activity (MAPK3 (human)) was 78.9%.
